Laboratory results published in BigSolDB 2.1.

COc1cc(/C=C/C(=O)O)cc(OC)c1O
solubility (mole fraction)
Conditions | in DMSO | in ethanol | in ethyl acetate | in ethylene glycol | in isopropanol | in n-butanol | in propylene glycol | in sec-butanol | in transcutol | in water
298.15 K | 0.148 | 0.012 | 0.00532 | 0.0059 | 0.00213 | 0.00355 | 0.00452 | 0.00409 | 0.0298 | 6.22e-05
303.15 K | 0.15 | 0.013 | 0.00627 | 0.00663 | 0.00222 | 0.00429 | 0.0053 | 0.00486 | 0.0324 | 8.11e-05
308.15 K | 0.153 | 0.0141 | 0.00764 | 0.00748 | 0.00234 | 0.00529 | 0.00607 | 0.00559 | 0.0353 | 0.000113
313.15 K | 0.156 | 0.0152 | 0.00935 | 0.00843 | 0.00245 | 0.00631 | 0.00708 | 0.00663 | 0.0383 | 0.000146
318.15 K | 0.159 | 0.0164 | 0.0109 | 0.00934 | 0.00257 | 0.00729 | 0.00811 | 0.00761 | 0.0412 | 0.000188

Conditions | solubility (mole fraction)
in PEG-400, 298.15 K | 0.0558
in PEG-400, 303.15 K | 0.0616
in PEG-400, 308.15 K | 0.0681
in PEG-400, 313.15 K | 0.0748
in PEG-400, 318.15 K | 0.0834
